Values quoted from earlier work in patent publication US11874283B2, “Method and compositions for the treatment and detection of endothelin-1 related kidney diseases” (MOREHOUSE SCHOOL OF MEDICINE, priority 2010, dated 2024).
Ends that are not written are not given here.

Test system: ET-1 ELISA
Settings: as determined by the manufacturer

Row | Substance | Cross reactivity
1 | ET-3: endothelin peptide cross-reacting in the ET-1 ELISA (CTCFTYKDKECVYYCHLDIIW; ends and bridges not checked; cysteine pairing not given here; UniProt P14138 97-117, looked up) | 14%
2 | big ET-1: biologically inactive 38-amino acid precursor of ET-1 (CSCSSLMDKECVYFCHLDIIWVNTPEHVVPYGLGSPRS; ends and bridges not checked; cysteine pairing not given here; UniProt P05305 53-90, looked up) | less than 1%
3 | ET-2: endothelin peptide cross-reacting in the ET-1 ELISA (CSCSSWLDKECVYFCHLDIIW; ends and bridges not checked; cysteine pairing not given here; UniProt P20800 49-69, looked up) | 45%
